Assay results reported in patent US20190091165A1, “METHOD FOR PREPARING NANOPARTICLE OF ACTIVE INGREDIENT USING LIPID AS LUBRICANT IN MILLING PROCESS” (BIO-SYNECTICS INC., priority 2017, published 2019).

Test: Separate experiment: dissolving and recrystallizing in a solvent (crystal form / salt stability)
Format: physicochemical

SMILES: CNC(=O)c1cc(Oc2ccc(NC(=O)Nc3ccc(Cl)c(C(F)(F)F)c3)cc2)ccn1.Cc1ccc(S(=O)(=O)O)cc1 [Sorafenib tosylate III]
- crystal form and salt stability on recrystallization: crystal form change and partial generation of free base compound by loss of tosylate salt
